Assay: Inhibition of Escherichia coli UTI89 PapD chaperon assessed as inhibition of biofilm formation
O=C(O)c1c(-c2ccco2)sc2c(C3CC3)c(Cc3cccc4ccccc34)cc(=O)n12 showed an IC50 of 61 µM.
With CC(C)(O)c1sc2c(C3CC3)c(Cc3cccc4ccccc34)cc(=O)n2c1C(=O)O the IC50 was 304 µM.
With O=C(O)c1c(Cc2ccccc2)sc2c(C3CC3)c(Cc3cccc4ccccc34)cc(=O)n12 the IC50 was 7 µM.
O=C(O)c1c(-c2ccoc2)sc2c(C3CC3)c(Cc3cccc4ccccc34)cc(=O)n12 showed an IC50 of 78 µM.
In the case of O=C(Nc1ccccc1)c1sc2c(C3CC3)c(Cc3cccc4ccccc34)cc(=O)n2c1C(=O)O, the IC50 is reported as 159 µM.
For Cc1cccc(-c2sc3c(C4CC4)c(Cc4cccc5ccccc45)cc(=O)n3c2C(=O)O)c1, the IC50 was 11 µM.
For Cc1ccc(-c2sc3c(C4CC4)c(Cc4cccc5ccccc45)cc(=O)n3c2C(=O)O)cc1, the IC50 was 13 µM.
Compound O=C(O)c1c(-c2ccccc2)sc2c(C3CC3)c(Cc3cccc4ccccc34)cc(=O)n12 has an IC50 of 11 µM.
For Cc1sc2c(C3CC3)c(Cc3cccc4ccccc34)cc(=O)n2c1C(=O)O, the IC50 was 90 µM.
O=C(O)c1c(-c2ccsc2)sc2c(C3CC3)c(Cc3cccc4ccccc34)cc(=O)n12 showed an IC50 of 25 µM.
Work on CS(=O)(=O)NC(=O)c1c(-c2ccccc2)sc2c(C3CC3)c(Cc3cccc4ccccc34)cc(=O)n12 yielded an IC50 of 39 µM.
